Experimental data as given in US8372342B2, “Apparatus for monitoring thrombus formation and method of monitoring thrombus formation” (Fujimori Kogyo Co., Ltd., priority 2005, dated 2013).

What was measured:
[1] = system: thrombus formation in citrate-treated blood; experiment: Thrombus formation monitoring in the FIG. 1 flow apparatus, collagen-coated constriction portion, citrate-treated blood released with CaCl2; format: cell-based; settings: 1 mg/ml added to solution A
Experimental: An apparatus for monitoring thrombus formation illustrated in FIG. 1 is used to fill a syringe 20 with 50 ml of a citrate-treated blood (solution A) in which 9 parts by volume of the blood immediately after the blood sample is mixed with 1 part by volume of 3.2% sodium citrate, and to fill a syringe 21 with 10 ml of 0.2M CaCl2 (solution B). The syringes 20 and 21 are connected to transparent nylon tubes (inlet tube 11 and drug tube 12) with an inner diameter of 3 mm. Both tubes are joined together at a T-shaped joint (cheese) and then connected to a polycarbonate thrombus formation chamber 10 of 3 mm in inner diameter and 1 cm in length through a single nylon tube (inlet tube 11) of 3 mm in inner diameter and 3 cm in length. The thrombus formation chamber 10 itself is constructed as a removable cassette. The joint portion between the cassette and the nylon tube (inlet tube 11) is made liquid-tight via an O-ring made of silicon rubber. A glass member is fixed on the inside of the cassette by an epoxy-based adhesive, thereby forming a constriction portion 14. The constriction portion 14 is designed so that the most narrowed site of the constriction portion 14 may have an inner diameter (the maximum gap between the constriction portion 14 and the inner wall) of 1.5 mm. In addition, the thrombus formation chamber 10 is connected liquid-tight with a tube as a discharge tube 13 having the same diameter and formed of the same material through an O-ring made of silicon rubber, and thus a thrombus monitoring apparatus 1 as illustrated in FIG. 1 is manufactured. Note that flange-type pressure gauges 40 and 41 are mounted on parts of the inlet tube 11 and the discharge tube 13 near the thrombus formation chamber 10 via joints (cheeses), respectively. […]
An apparatus for monitoring thrombus formation 1 is prepared and thrombus formation is then monitored in a manner similar to Example 1, except that the solution A of Example 1 is further added with an unfractionated heparin (prepared from pig mucous) at a concentration of 1 mg/ml.

[2] = system: thrombus formation in whole blood; experiment: Microchip pressure measurement, collagen/tissue thromboplastin chamber, blood anticoagulated with trypsin inhibitor and thrombin aptamers, released with antisense DNAs (Example 17 system); format: cell-based
From the text: A microchip 300, where the substrate and the cover of the microchip shown in FIG. 9(B) and FIG. 9(C), respectively, made of the same materials as those of Example 7 were pressure-bonded, was used. The microchip 300 comprises a blood coagulation inhibitor inlet tube 322 and a discharge tube 313 which were connected to the substrate 100 as in the case with the discharge tube of Example 7. However, the grooves of the microchip 300 of FIG. 9 are all formed of 200 μm in depth. […] A solution was prepared such that 1 vial of the Sysmex Corporation PT reagent (tissue thromboplastin) was dissolved in 1 ml of purified water and then dialyzed in purified water, the dialyzed product in purified water was mixed with collagen type I (manufactured by Nitta Gelatin Inc.) at a ratio of 1:1. After that, the applied portion was dried at 4° C. in air and thrombus formation chamber 311 was covered, which was used as a thrombus inducing material 315. The blood was collected after the addition of an anticoagulation treatment agent such that the final concentrations of the respective components in the syringe were 25 μg/ml for maize-derived trypsin inhibitor, 10 μM for exosite I thrombin aptamer, 10 μM for exosite II thrombin aptarner (5′-[…]-3′: SEQ D NO. 3). Immediately before monitoring, the blood thus collected was added with antisense DNAs with respect to thrombin aptamers of exosite I and exosite II so that each of them would reach to a concentration of 40 μM. Then, a syringe (1 ml syringe, manufactured by Terumo Corporation) was filled with the blood and provided as the sample syringe 320 shown in FIG. 9. The My Flow (manufactured by Arbiotec Co., Ltd), which is a micro-feeding pump capable of monitoring the inner pressure of a liquid-feeding pump, was connected to a pressure inlet tube 317 shown in FIG. 9. Mineral oil was pressed into the microchip 300 from the top of the syringe 320 and the blood was pushed out into the microchip 300 at a flow rate of 50 μl/min, while the pressure exerted on the sample syringe 320 was monitored. […]

[3] = system: thrombus formation in citrate-treated blood; experiment: Thrombus formation monitoring in a glass tube chamber with collagen-immersed silk as thrombus inducing material; format: cell-based; settings: 0.1 mg/ml added to solution A; flown for 15 minutes
Experimental: After flowing the solution A in the syringe 20 at 3 ml/min and the solution B in the syringe 21 at 0.3 ml/min for 15 minutes, the thrombus formation chamber 10 was detached and the inside thereof was then washed with a physiological saline solution.

blood coagulation [4] = experiment: Thromboelastogram waveform of coagulation (Reference Experiment 3); format: cell-based; settings: aptamers to exosite I and II; stored at room temperature for 15 minutes
Experimental: FIG. 11(A) is a result obtained by analyzing a thromboelastogram waveform of coagulation by adding 10 μM of each of aptamers for exosite I and exosite II to the blood, and after storing the blood at room temperature for 15 minutes, adding 40 μM of each of antisense DNAs of both aptamer. FIG. 11(B) illustrates the thromboelastogram waveform of the blood just after blood sampling.
FIG. 11(A) is an analysis of a waveform of coagulation with thromboelastogram by storing the blood added with […] of aptamers to exosite I and exosite II at room temperature for 15 minutes, and then by adding 40 μM of antisense DNAs of both aptamers. FIG. 11(B) is a thromboelastogram waveform of the blood just after blood sampling.

blood coagulation [5] = experiment: Time taken for coagulation of blood in Eppendorf tubes (Reference Experiment 1); format: cell-based
Experimental: The blood immediately after blood sampling, the blood prepared by adding a volume of one tenth of 300 μg/ml of a maize-derived trypsin inhibitor to the first blood, and the blood prepared by adding a thrombin aptamer that recognizes exosite I to the second blood so as to be 5 μM in concentration were provided. Then, for these three kinds of the blood, the time taken for coagulation were measured in Eppendorf tubes (made of polypropylene). The sample was reversed up side down every one minute and the flowability thereof was confirmed.
Further, when 5 μM of a thrombin aptamer that recognizes exosite I and 5 μM of a thrombin aptamer that recognizes exosite II were used in combination, blood coagulation was not confirmed even after 3 hours even in the case of the blood free of the trypsin inhibitor.

[6] = system: plasma coagulation (APTT); experiment: APTT measurement on plasma (Reference Experiment 2); format: biochemical; settings: plasma added with 500-μM exosite I recognizing thrombin aptamer
Experimental: The measurement of APTT was carried out on […] of plasma with respect to each of sample A added with […] of physiological saline solution, sample B added with […] of 500-μM exosite I recognizing thrombin aptamer, and sample C added with 10 μl of a solution containing 500-μM exosite I recognizing thrombin aptamer and 1500-μM exosite I recognizing thrombin aptamer antisense DNA. The sample A was 44 seconds, the sample B was 2 minutes or more, and the sample C was 45 seconds.

[7] = system: thrombus formation in whole blood; experiment: Microchip pressure measurement, blood anticoagulated with citric acid and maize-derived trypsin inhibitor, released with calcium chloride (Example 20 system); format: cell-based; settings: 2 μg/ml
Experimental: The blood sampling was carried out with the addition of 3.2% citric acid so that the ratio of citric acid and the blood be 1:9. Further, the blood was added with a maize-derived trypsin inhibitor at a concentration of 25 μg/ml to carry out an anticoagulation reaction. Immediately after adding calcium chloride to the anticoagulated blood so that it should reach 15 mM with respect to the anticoagulated blood at the time of monitoring thrombus formation, the blood was added to a syringe (1-ml syringe, manufactured by Terumo Corporation), followed by inflowing the blood into the same microchip as that of Example 17 at a flow rate of 40 μl/min. Subsequently, a change in pressure was measured using the same system as that of Example 17. The pressure began to rise 15 minutes after starting the pressure measurement and it rose up to about 60 kPa.
The blood sampling was carried out with the addition of an anticoagulation treatment agent in manner similar to Example 20. Subsequently, the same procedure as that of Example 20 was carried out, except that ReoPro (LILLY Co., Ltd.) was added at a concentration of 2 μg/ml. The measurement of pressure was then performed. The pressure began to rise 20 minutes after starting the pressure measurement and it rose up to about 15 kPa after 25 minutes (FIG. 15).

unfractionated heparin
thrombus in the thrombus formation chamber by visual observation after washing [1]: thrombus cannot be found
decrease in blood flow discharged from the discharge tube ([1]; solutions flown for 10 minutes): no decrease in blood flow
pressure difference between inlet tube and discharge tube pressure gauges ([1]; solutions flown for 10 minutes): no pressure difference
pressure rose up to ([2]; 1 unit/ml, flow rate 50 μl/min): about 10 kPa
time after starting the measurement at which pressure began to rise ([2]; 1 unit/ml, flow rate 50 μl/min): 13 min

CC1CNc2c(cccc2S(=O)(=O)N[C@@H](CCCNC(=N)N)C(=O)N2CC[C@@H](C)C[C@@H]2C(=O)O)C1 (stereo partly shown) [Argatroban]
presence of thrombus in glass tube by visual observation after washing [3]: did not confirm the presence of thrombus

thrombin aptamer that recognizes exosite I and thrombin aptamer that recognizes exosite II: combination of exosite I aptamer (SEQ ID NO. 1) and exosite II aptamer 5′-AGTCCGTGGTAGGGCAGGTTGGGGTGACT-3′ (SEQ ID NO. 3) (chain 1 GGTTGGTGTGGTTGG; listed as DNA, chemistry not given here)
effect on blood storage / coagulation by thromboelastogram (blood coagulation [4]): allow the blood to be stored
time without confirmed blood coagulation (blood coagulation [5]; 5 μM of each aptamer in combination, blood free of the trypsin inhibitor): > 3 h

5′-GGTTGGTGTGGTTGG-3′ (listed as DNA, chemistry not given here) [thrombin aptamer]
coagulation time (blood coagulation [5]; 5 μM exosite I thrombin aptamer added to the blood already containing trypsin inhibitor): 62 min
APTT [6]: ≥ 2 min

B1: ReoPro: ReoPro (LILLY Co., Ltd.) (antibody, chains of the INN, looked up, V domains shown)
VH: EVQLQQSGTVLARPGASVKMSCEASGYTFTNYWMHWVKQRPGQGLEWIGAIYPGNSDTSYIQKFKGKAKLTAVTSTTSVYMELSSLTNEDSAVYYCTLYDGYYVFAYWGQGTLVTVSA
VL: EIVLTQSPVTLSVTPGDSVSLSCRASRDISNNLHWFQQTSHESPRLLIKYASQSMSGIPSRFSGSGSGTDFTLSINSVETEDFGMYFCQQTNSWPYTFGGGTKLEIK
modifications: Fab
pressure rose up to ([7]; after 25 minutes): about 15 kPa
time after starting the pressure measurement at which pressure began to rise ([7]; flow rate 40 μl/min): 20 min
increase in pressure ([2]; 50 μg/ml, measurement for 18 minutes): could not be confirmed
